Experiments:
E. coli DNA gyrase = E. coli DNA gyrase (Escherichia coli, UniProt P0AES6); test: E. coli DNA gyrase supercoiling assay
E. faecalis ATCC 29212 = test: Antibacterial activity; type: cell-based, Enterococcus faecalis; settings: for inhibition at 50 µM: Enterococcus faecalis, ATCC29212, read-out: growth inhibition of E. faecalis
E. coli topoisomerase IV = E. coli topoisomerase IV (Escherichia coli, UniProt P20083); test: E. coli topoisomerase IV inhibition assay; settings: for IC50: IC50 E. coli topo IV; for remaining activity at 1 µM: read-out: RA (residual activity) E. coli topo IV
Sequence of E. coli topoisomerase IV (P20083 whole entry): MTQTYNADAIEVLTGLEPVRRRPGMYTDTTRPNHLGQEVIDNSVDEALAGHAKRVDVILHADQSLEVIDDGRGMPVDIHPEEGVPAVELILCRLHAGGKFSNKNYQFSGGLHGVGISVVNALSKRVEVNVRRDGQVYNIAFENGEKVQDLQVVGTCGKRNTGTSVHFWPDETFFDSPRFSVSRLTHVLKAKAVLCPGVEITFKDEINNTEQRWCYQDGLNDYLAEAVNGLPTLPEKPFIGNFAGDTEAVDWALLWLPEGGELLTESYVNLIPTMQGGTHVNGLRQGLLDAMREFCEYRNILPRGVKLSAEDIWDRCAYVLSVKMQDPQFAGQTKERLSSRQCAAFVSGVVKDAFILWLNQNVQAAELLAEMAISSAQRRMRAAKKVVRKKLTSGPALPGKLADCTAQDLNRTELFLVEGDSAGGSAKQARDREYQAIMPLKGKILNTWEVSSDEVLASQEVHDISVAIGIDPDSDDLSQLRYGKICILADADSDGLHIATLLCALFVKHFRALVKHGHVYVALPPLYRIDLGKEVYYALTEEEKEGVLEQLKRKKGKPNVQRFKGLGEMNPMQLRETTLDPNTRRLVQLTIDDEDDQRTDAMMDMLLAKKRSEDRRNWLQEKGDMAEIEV
Sequence of E. coli topoisomerase IV (P0AFI2 whole entry partner): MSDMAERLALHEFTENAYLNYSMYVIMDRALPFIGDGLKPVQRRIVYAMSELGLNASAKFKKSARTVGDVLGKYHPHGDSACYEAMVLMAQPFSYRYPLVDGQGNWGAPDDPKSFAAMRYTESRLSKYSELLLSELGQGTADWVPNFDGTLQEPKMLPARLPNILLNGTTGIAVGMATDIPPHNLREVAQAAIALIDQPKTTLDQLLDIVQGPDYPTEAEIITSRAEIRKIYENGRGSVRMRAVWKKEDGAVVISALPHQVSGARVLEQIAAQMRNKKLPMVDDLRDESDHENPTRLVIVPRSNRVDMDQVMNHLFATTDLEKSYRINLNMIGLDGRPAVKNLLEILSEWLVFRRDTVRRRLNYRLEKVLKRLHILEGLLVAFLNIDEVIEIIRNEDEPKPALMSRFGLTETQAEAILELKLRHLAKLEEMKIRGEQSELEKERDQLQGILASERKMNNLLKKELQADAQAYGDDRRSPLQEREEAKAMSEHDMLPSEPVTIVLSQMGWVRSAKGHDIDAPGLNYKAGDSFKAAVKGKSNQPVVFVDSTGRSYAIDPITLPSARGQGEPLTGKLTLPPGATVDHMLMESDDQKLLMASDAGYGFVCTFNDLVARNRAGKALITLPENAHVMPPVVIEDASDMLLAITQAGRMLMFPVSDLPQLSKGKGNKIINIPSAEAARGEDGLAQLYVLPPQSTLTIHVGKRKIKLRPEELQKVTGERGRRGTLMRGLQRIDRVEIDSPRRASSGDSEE

S. aureus ATCC 25923 = test: Antibacterial activity; type: cell-based; settings: Staphylococcus aureus, ATCC25923, read-out: growth inhibition of S. aureus
E. coli JW5503 ΔtolC = test: Antibacterial activity; type: cell-based, Escherichia coli; settings: inhibitor concentration 50 μM
[1] = Growth inhibition of the bacterial panel at 50 μM; type: cell-based; settings: read-out: growth inhibition of bacteria (all tested strains, Table 1S)
E. coli (ATCC 25922) = test: MIC broth micro-dilution; type: cell-based, Escherichia coli
E. coli (MG1655) = test: MIC broth micro-dilution; type: cell-based, Escherichia coli
E. coli (BW 25113) = test: MIC broth micro-dilution; type: cell-based, Escherichia coli
HepG2 cells = settings: read-out: IC50 HepG2; literature value; cited from earlier work
HUVEC cells = settings: read-out: IC50 HUVEC; literature value; cited from earlier work

4,5-Dibromo-N-(2-isopropoxy-4-((pyridin-2-ylmethyl)carbamoyl)phenyl)-1H-pyrrole-2-carboxamide [Compound 15a]
RA (residual activity) E. coli gyrase (E. coli DNA gyrase; residual activity of the enzyme at 1 μM of the compound): 100%

CC(C)Oc1cc(C(=O)N[C@H](C(=O)O)C(C)C)ccc1NC(=O)c1cc(Br)c(Br)[nH]1 [Compound 8a, (4-(4,5-Dibromo-1H-pyrrole-2-carboxamido)-3-isopropoxybenzoyl)-L-valine]
inhibition at 50 µM (E. faecalis ATCC 29212): > 80%

Cc1[nH]c(C(=O)Nc2ccc(C(=O)N[C@@H](Cc3ccccc3)C(=O)O)cc2OC(C)C)c(Cl)c1Cl [Compound 8d]
inhibition at 50 µM (E. faecalis ATCC 29212): > 80%

Cc1[nH]c(C(=O)Nc2ccc(C(=O)N[C@@H](C)C(=O)O)cc2OC(C)C)c(Cl)c1Cl [Compound 8e]
inhibition at 50 µM (E. faecalis ATCC 29212): > 80% | IC50 (E. coli topoisomerase IV): < 1000 nM

Cc1[nH]c(C(=O)Nc2ccc(C(=O)N[C@H](C)C(=O)O)cc2OC(C)C)c(Cl)c1Cl [Compound 8f]
inhibition at 50 µM (E. faecalis ATCC 29212): > 80%

Cc1[nH]c(C(=O)Nc2ccc(C(=O)N[C@@H](C)C(=O)O)cc2OCCNC(=O)OC(C)(C)C)c(Cl)c1Cl [Compound 8i]
remaining activity at 1 µM (E. coli topoisomerase IV): 100%

COC(=O)[C@H](Cc1ccccc1)NC(=O)c1ccc(NC(=O)c2cc(Br)c(Br)[nH]2)c(OCCN)c1 [Compound 9a, (S)-2-(2-(4,5-Dibromo-1H-pyrrole-2-carboxamido)-5-((1-methoxy-1-oxo-3-phenylpropan-2-yl)carbamoyl)phenoxy)ethan-1-aminium chloride]
inhibition at 50 µM (S. aureus ATCC 25923): > 80% | inhibition at 50 µM (E. faecalis ATCC 29212): > 80%

COC(=O)[C@H](C)NC(=O)c1ccc(NC(=O)c2[nH]c(C)c(Cl)c2Cl)c(OCCN)c1.Cl [Compound 9b]
inhibition at 50 µM (S. aureus ATCC 25923): > 80% | inhibition at 50 µM (E. faecalis ATCC 29212): > 80% | growth inhibition of E. coli JW5503 ΔtolC (E. coli JW5503 ΔtolC): completely suppressed

NCCOc1cc(C(=O)NCC(=O)O)ccc1NC(=O)c1cc(Br)c(Br)[nH]1 [Compound 9c]
inhibition at 50 µM [1]: < 36%

NCCOc1cc(C(=O)N[C@@H](Cc2ccccc2)C(=O)O)ccc1NC(=O)c1cc(Br)c(Br)[nH]1 [Compound 9d]
inhibition at 50 µM [1]: < 36%

Cc1[nH]c(C(=O)Nc2ccc(C(=O)N[C@@H](C)C(=O)O)cc2OCCN)c(Cl)c1Cl [Compound 9e]
inhibition at 50 µM [1]: < 36% | IC50 (E. coli topoisomerase IV): < 1000 nM

Cc1[nH]c(C(=O)Nc2ccc(C(=O)N[C@@H](C)C(=O)NN)cc2OC(C)C)c(Cl)c1Cl [Compound 10a, (S)-3,4-Dichloro-N-(4-((1-hydrazineyl-1-oxopropan-2-yl)carbamoyl)-2-isopropoxyphenyl)-5-methyl-1H-pyrrole-2-carboxamide]
inhibition at 50 µM (E. faecalis ATCC 29212): > 80% | remaining activity at 1 µM (E. coli topoisomerase IV): 100%

Cc1[nH]c(C(=O)Nc2ccc(C(=O)N[C@@H](C)c3n[nH]c(=O)o3)cc2OC(C)C)c(Cl)c1Cl [Compound 11a, (S)-3,4-Dichloro-N-(2-isopropoxy-4-((1-(5-oxo-4,5-dihydro-1,3,4-oxadiazol-2-yl)ethyl)carbamoyl)phenyl)-5-methyl-1H-pyrrole-2-carboxamide]
inhibition at 50 µM (S. aureus ATCC 25923): > 80% | inhibition at 50 µM (E. faecalis ATCC 29212): > 80% | MIC (E. coli (ATCC 25922); Escherichia coli, ATCC25922, read-out: MIC E. coli (ATCC 25922)): > 50 µM | MIC E. coli (ATCC 25922) (E. coli (ATCC 25922); without PAβN): no bioactivity | MIC (E. coli (MG1655); Escherichia coli, MG1655, read-out: MIC E. coli (MG1655)): > 50 µM | MIC E. coli (MG1655) (E. coli (MG1655); without PAβN): no bioactivity | MIC (E. coli (BW 25113); Escherichia coli, read-out: MIC E. coli (BW 25113)): > 50 µM | MIC E. coli (BW 25113) (E. coli (BW 25113); without PAβN): no bioactivity

Cc1[nH]c(C(=O)Nc2ccc(C(=O)N[C@@H](C)c3n[nH]c(=O)o3)cc2OCCNC(=O)OC(C)(C)C)c(Cl)c1Cl [Compound 11b]
inhibition at 50 µM (E. faecalis ATCC 29212): > 80%

Cc1[nH]c(C(=O)Nc2ccc(C(=O)N[C@@H](C)c3n[nH]c(=O)o3)cc2OCCN)c(Cl)c1Cl [Compound 12, (S)-2-(2-(3,4-Dichloro-5-methyl-1H-pyrrole-2-carboxamido)-5-((1-(5-oxo-4,5-dihydro-1,3,4-oxadiazol-2-yl)ethyl)carbamoyl)phenoxy)ethan-1-aminium chloride]
growth inhibition of E. faecalis (E. faecalis ATCC 29212; inhibitor concentration 50 μM): no growth inhibition | IC50 (E. coli topoisomerase IV): < 1000 nM

O=C(O)CNC(=O)c1ccc(NC(=O)c2cc(Br)c(Br)[nH]2)cc1OCc1ccccc1 [Compound 23a, (2-(Benzyloxy)-4-(4,5-dibromo-1H-pyrrole-2-carboxamido)benzoyl)glycine]
fold more active on E. coli gyrase than isopropoxy analogue 23c (E. coli DNA gyrase; ratio of IC50 values): 4 fold | IC50 (E. coli topoisomerase IV): 42000 ± 11000 nM

CC(C)Oc1cc(NC(=O)c2cc(Br)c(Br)[nH]2)ccc1C(=O)NCC(=O)O [Compound 23c]
remaining activity at 1 µM (E. coli topoisomerase IV): 100%

Cc1[nH]c(C(=O)Nc2ccc(C(=O)NCC(=O)O)c(OC(C)C)c2)c(Cl)c1Cl [Compound 23d]
remaining activity at 1 µM (E. coli topoisomerase IV): 100%

COc1cc([C@@H]2c3cc4c(cc3[C@@H](O[C@@H]3O[C@@H]5CO[C@@H](C)O[C@H]5[C@H](O)[C@H]3O)[C@H]3COC(=O)[C@H]23)OCO4)cc(OC)c1O [Etoposide]
IC50 (HepG2 cells): 30.2 µM | IC50 (HUVEC cells): 1250 nM
